Where two headings read alike, the source gives them in different places.

The subject of assay [1] is primary cortical neurons. Kind of assay: Dendritic spine formation in primary cortical neurons. It counts as cell-based, ICR mice. The procedure: Cell culture: SH-SY5Y neuroblastoma cells were cultured at 37° C., 5% CO2., in Dulbecco's Modified Eagle Medium/Ham's F-12 nutrient mixture (DMEM/F12) (Invitrogen, Carlsbad, Calif.) supplemented with 10% heat-inactivated fetal bovine serum containing 100 units/ml penicillin, 100 μg/ml streptomycin. Primary cortical neuron cultures were derived from embryo day 18 (E18) from ICR mice. The dissociated cells were plated on glass cover slips coated with poly-D-lysine in Neurobasal medium supplemented with 2% B27 (Invitrogen), 100 units/ml penicillin, 100 μg/ml streptomycin, and 2 mM L-glutamine. Primary NSCs from normal mice were isolated from the subventricular zone (SVZ) of 8 week-old C57BL/6 mice brain. NSCs from adult Tg2576 mice brain were obtained from Seoul National University Hospital. The neurospheres were cultured as previously described (M. Y. Kim, B. S. Moon, K. Y. Choi, Isolation and maintenance of cortical neural progenitor cells in vitro. Methods Mol Biol 1018, 3-10 (2013)). For neurosphere culture from normal mice, the cells were dissociated from brain tissue and grown in N2 medium in 25 cm^2 flasks (SPL, Gyeonggi-do, Korea) in suspension. bFGF (20 ng/ml, Peprotech, Princeton, N.J.) and human EGF (20 ng/ml, Peprotech) were added to the media to allow the cells to form neurospheres. For analyses, NSCs were cultured as a monolayer. For differentiation of NSCs, the neurospheres were dissociated with TrypLE (Invitrogen), plated on 15 μg/ml poly-L-ornithine-(Sigma-Aldrich, St. Louis, Mo.) and 10 μg/ml fibronectin (Gibco)-coated plates, and cultured in bFGF- and EGF-depleted N2 medium for 2 days. For neurosphere culture from Tg2576 mice, the cells were grown in DMEM/F12 supplemented with B27 supplements in 75 cm^2 flasks (SPL) in suspension. bFGF (10 ng/ml) and human EGF (10 ng/ml) were added to the media to allow the cells to form neurospheres. […]

For a further assay, the system named is 5XFAD mice. The settings on record: 8-month old 5XFAD mice.
Assay [2] deals with NSCs from adult Tg2576 mice. Kind of assay: Immunofluorescence staining of NSCs from adult Tg2576 mice. It counts as cell-based. The following applies: 100 nM, 48 hrs. How it is done: Cell culture: SH-SY5Y neuroblastoma cells were cultured at 37° C., 5% CO2., in Dulbecco's Modified Eagle Medium/Ham's F-12 nutrient mixture (DMEM/F12) (Invitrogen, Carlsbad, Calif.) supplemented with 10% heat-inactivated fetal bovine serum containing 100 units/ml penicillin, 100 μg/ml streptomycin. Primary cortical neuron cultures were derived from embryo day 18 (E18) from ICR mice. The dissociated cells were plated on glass cover slips coated with poly-D-lysine in Neurobasal medium supplemented with 2% B27 (Invitrogen), 100 units/ml penicillin, 100 μg/ml streptomycin, and 2 mM L-glutamine. Primary NSCs from normal mice were isolated from the subventricular zone (SVZ) of 8 week-old C57BL/6 mice brain. NSCs from adult Tg2576 mice brain were obtained from Seoul National University Hospital. The neurospheres were cultured as previously described (M. Y. Kim, B. S. Moon, K. Y. Choi, Isolation and maintenance of cortical neural progenitor cells in vitro. Methods Mol Biol 1018, 3-10 (2013)). For neurosphere culture from normal mice, the cells were dissociated from brain tissue and grown in N2 medium in 25 cm^2 flasks (SPL, Gyeonggi-do, Korea) in suspension. bFGF (20 ng/ml, Peprotech, Princeton, N.J.) and human EGF (20 ng/ml, Peprotech) were added to the media to allow the cells to form neurospheres. For analyses, NSCs were cultured as a monolayer. For differentiation of NSCs, the neurospheres were dissociated with TrypLE (Invitrogen), plated on 15 μg/ml poly-L-ornithine-(Sigma-Aldrich, St. Louis, Mo.) and 10 μg/ml fibronectin (Gibco)-coated plates, and cultured in bFGF- and EGF-depleted N2 medium for 2 days. For neurosphere culture from Tg2576 mice, the cells were grown in DMEM/F12 supplemented with B27 supplements in 75 cm^2 flasks (SPL) in suspension. bFGF (10 ng/ml) and human EGF (10 ng/ml) were added to the media to allow the cells to form neurospheres. For inducing differentiation and AP expression, the neurospheres were dissociated with pipetting, plated on 15 μg/ml poly-L-ornithine- and 10 μg/ml fibronectin (Gibco)-coated plates, and cultured in bFGF- and EGF-depleted medium for 2 days.
Immunocytochemistry: SH-SY5Y cells or adult NSCs were placed on glass coverslips coated with poly-L-ornithine/laminin or poly-D-lysine, respectively. After washing three times with PBS for 5 min, cells were fixed in 10% formalin for 15 min at room temperature. The cells were then washed with PBS and permeabilized in 0.1% Triton X-100 for 2 min. Cells were placed in blocking solution containing 5% BSA in PBS for 1 h at room temperature and incubated with anti-active caspase 3 (cell signaling), anti-Aβ (thermo), anti-Tau (Cell signaling), anti-LC3 (Cell signaling) and anti-LAMP1 (Abcam) in blocking buffer for 2 h at room temperature. After washing, cells were incubated with goat anti-rabbit antibody conjugated with Alexa Fluor 488 (Thermo) and/or goat anti-rat antibody conjugated with Alexa Fluor 555 (Thermo) overnight. After washing, cells were incubated with 4′,6-diamidino-2-phenylindole (DAPI) for 5 min. Coverslips were mounted using mounting medium (Biomeda, Foster City, Calif.) and visualized by confocal microscopy using a LSM700 microscope (Carl Zeiss). The percentage of coefficient was calculated using the pixels above threshold of fluorescence intensities. […] The fluorescence intensity was observed under a confocal microscopy using a LSM700 microscope (Carl Zeiss). The number of LysoTracker puncta was analyzed with Icy software.

The subject of assay [3] is primary cortical neurons. Briefly: Western blot of primary cortical neurons. The assay is classed as cell-based, ICR mice. The procedure:
Lysates were centrifuged at 13,000 rpm for 20 min at 4° C., and the protein content in the supernatant was determined using the Bradford assay (Bio-rad, Hercules, Calif.). For subcellular fractionation, cells were lysed with lysis buffer (250 mM Sucrose, 20 mM HEPES, pH 7.4, 10 mM KCl, 1.5 mM MgCl2, 1 mM EGTA, 1 mM EDTA, 1 mM DTT) containing protease inhibitor for 30 min on ice, followed by centrifugation at 720 g for 5 min at 4° C. Supernatants were centrifuged at 15,000 rpm for 10 min at 4° C., and the resulting supernatant was used as the cytosol fraction. After centrifugation at 720 g for 5 min, pellets were washed with lysis buffer and dissolved in nuclear lysis buffer (50 mM Tris HCl, pH 8.0, 150 mM NaCl, 1% NP40, 0.5% sodium deoxycholate, 0.1% SDS, 10% glycerol) as the nuclear fraction. Protein from each sample was subjected to 8%˜15% SDS-PAGE, and the resolved proteins were transferred to nitrocellulose or polyvinylidene fluoride membrane. The membranes were blocked with 5% nonfat milk powder in Tris-buffered saline/Tween 20 (TBST) for 1 h at room temperature, then incubated with anti-phospho-ERK (Cell signaling), anti-ERK (Cell signaling), anti-LAMP1 (Abcam), anti-LC3 (Cell signaling), anti-cathepsin B (Cell signaling), anti-p62 (Cell signaling), anti-p62 (5114, Cell signaling), anti-phospho-mTOR (5536, Cell signaling), anti-mTOR (2983, Cell signaling), anti-phospho-ULK1 (14202, Cell signaling), anti-ULK1 (8054, Cell signaling), anti-TFEB (852501, Biolegend), and anti-GAPDH (Cell signaling) overnight at 4° C.

Take `CC(=O)Nc1cccc(-n2c(=O)n(C3CC3)c(=O)c3c(Nc4ccc(I)cc4F)n(C)c(=O)c(C)c32)c1` [trametinib]: the “increase in number of dendritic spines compared to vehicle treated group” value in the assay on primary cortical neurons [1] (100 nM) is on record as 24%. In addition, in the assay with primary cortical neurons [1] (Aβ1-42 oligomer-induced neurotoxic conditions), the “increase in number of dendritic spines compared to Aβ1-42 treated alone group” value was 80%. For the same compound, in the assay on 5XFAD mice (0.05 mg/kg/day), the MBP levels entry is on record as “restored back to levels comparable to that of wild type mice”. In addition, the MBP levels result with 5XFAD mice (0.1 mg/kg/day) is “restored back to levels comparable to that of wild type mice”. Also, in assay [2], the “active caspase 3” value is recorded as “reduced active caspase 3”; the “autophagosome-lysosome fusions in axon-like elongated elements and soma” value is on record as “markedly increased”; the “cells with bipolar morphology with elongated neurites” value is reported as “marked increase”; the “differentiation of NSCs into neuron-like cells” value is “strongly induced differentiation of NSCs into neuron-like cells”. Besides, in assay [2], the “expression of autophagosomes and lysosomes (LC3 and LAMP1 staining)” value is listed as “markedly increased”. Moreover, the “decrease of p-mTOR/mTOR ratio compared to Aβ1-42 treated alone group” value in the assay on primary cortical neurons [3] (100 nM, co-treated with Aβ1-42) is recorded as 67%. Moreover, in the assay with primary cortical neurons [3] (co-treated with Aβ1-42), the “decrease of pULK1(S757) to total ULK1 ratio compared to Aβ1-42 treated alone neurons” value was determined as 29%. For the same compound, the “increase of mature cathepsin B level compared to vehicle treated control (CTL)” value in the assay with primary cortical neurons [3] (primary cortical neurons) was 54%. For the same compound, in the assay with primary cortical neurons [3] (primary cortical neurons treated with Aβ1-42 oligomers), the “increase of mature cathepsin B level compared to Aβ1-42 treated alone group” value stood at 73%.

For the origin of these results see US20220265657A1, “ADMINISTRATION METHOD AND DOSAGE REGIMEN FOR TREATMENT OF NEURODEGENERATIVE DISEASES USING TRAMETINIB AND MARKERS” (GENUV INC., priority 2019, published 2022).
